Literature values, collected in US20220370615A1, “Prevention of Illicit Manufacture of Methamphetamine from Pseudoephedrine Using Food Flavor Excipients” (Satara Pharmaceuticals, priority 2021, published 2022).

Details: species and route not given

CC(=O)c1cnccn1 [Acetylpyrazine]
LD50: > 4000 mg/kg
